US20250340557A1, “PYRIMIDINE DERIVATIVE” (ASKA PHARMACEUTICAL CO., LTD., priority 2022, published 2025)

Molecular target: T1, human mPGES-1 (Homo sapiens, UniProt O14684)
T1 construct: made in house; host or cells: COS-1 cells (transient transfection; microsomal fraction used as enzyme)
T1 sequence (O14684 1-152): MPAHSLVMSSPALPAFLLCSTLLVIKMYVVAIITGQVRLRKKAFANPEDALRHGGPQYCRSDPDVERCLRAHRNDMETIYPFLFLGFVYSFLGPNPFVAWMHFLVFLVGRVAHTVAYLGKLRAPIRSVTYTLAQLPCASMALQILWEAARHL
Test: Test for mPGES-1 inhibitory activity (microsomal enzyme, PGE2 EIA)
Type: biochemical
Conditions: microsomes from COS-1 cells transfected with human mPGES-1 cDNA; substrate PGH2 1 μM; 4° C., 4 minutes; PGE2 measured by EIA; read-out: h mPGES1 IC50
Summary of the method: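 IC50 values were derived from EIA-quantified PGE2 after a 4 min, 4 °C reaction with PGH2 at 1 μM final, stopped with ferric chloride/citric acid. Beforehand, compound (2% DMSO final) sat 15 min at 4 °C with human mPGES-1 microsomes from transiently transfected COS-1 cells. Buffer was sodium phosphate pH 7.2 containing 2.5 mM reduced glutathione and 1 mM EDTA.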

`O=C(NCc1ccc(C(F)(F)F)c(-c2nc(C(F)(F)F)cc(=O)[nH]2)c1F)C1CCN(c2ccc(F)c(Cl)c2)CC1` [Example 88, 1-(3-chloro-4-fluorophenyl)-N-{2-fluoro-3-[6-oxo-4-(trifluoromethyl)-1,6-dihydropyrimidin-2-yl]-4-(trifluoromethyl)benzyl}piperidine-4-carboxamide] and `Cc1cc(=O)[nH]c(-c2c(C(F)(F)F)ccc(CNC(=O)C3CCN(c4ccc(Cl)c(F)c4)CC3)c2F)n1` [Example 95, 1-(4-chloro-3-fluorophenyl)-N-[2-fluoro-3-(4-methyl-6-oxo-1,6-dihydropyrimidin-2-yl)-4-(trifluoromethyl)benzyl]piperidine-4-carboxamide] cannot be ordered by IC50: less than 1 nM for the first, less than 1 nM for the second.

Compared with `O=C(NCc1ccc(C(F)(F)F)c(-c2nc3c(c(=O)[nH]2)CCC3)c1F)C1CCN(c2ccc(Cl)cc2)CC1` [Example 89, 1-(4-chlorophenyl)-N-[2-fluoro-3-(4-oxo-4,5,6,7-tetrahydro-3H-cyclopenta[d]pyrimidin-2-yl)-4-(trifluoromethyl)benzyl]piperidine-4-carboxamide], `COc1cc(N2CCC(C(=O)NCc3ccc(C(F)(F)F)c(-c4nc(C)cc(=O)[nH]4)c3F)CC2)ccc1Cl` [Example 93, 1-(4-chloro-3-methoxyphenyl)-N-[2-fluoro-3-(4-methyl-6-oxo-1,6-dihydropyrimidin-2-yl)-4-(trifluoromethyl)benzyl]piperidine-4-carboxamide] is higher in IC50: less than 1 nM for the first, 1.4 nM for the second. The first is the more potent here.

Going from `CCc1nc(-c2c(C(F)(F)F)ccc(CNC(=O)C3CCN(c4ccc(C#N)cc4Cl)CC3)c2F)[nH]c(=O)c1F` [Example 90, 1-(2-chloro-4-cyanophenyl)-N-[3-(4-ethyl-5-fluoro-6-oxo-1,6-dihydropyrimidin-2-yl)-2-fluoro-4-(trifluoromethyl)benzyl]piperidine-4-carboxamide] to `CCc1cc(=O)[nH]c(-c2c(C(F)(F)F)ccc(CNC(=O)C3CCN(c4ccc(Cl)c(OC)c4)CC3)c2F)n1` [Example 98, 1-(4-chloro-3-methoxyphenyl)-N-[3-(4-ethyl-6-oxo-1,6-dihydropyrimidin-2-yl)-2-fluoro-4-(trifluoromethyl)benzyl]piperidine-4-carboxamide], the IC50 rises from 1.6 nM to 19 nM (12-fold). The first is the more potent here.

Compared with `Cc1cc(=O)[nH]c(-c2c(C(F)(F)F)ccc(CNC(=O)C3CCN(c4cccc(C(F)(F)F)c4)CC3)c2F)n1` [Example 94, N-[2-fluoro-3-(4-methyl-6-oxo-1,6-dihydropyrimidin-2-yl)-4-(trifluoromethyl)benzyl]-1-[3-(trifluoromethyl)phenyl]piperidine-4-carboxamide], `Cc1nc(-c2c(C(F)(F)F)ccc(CNC(=O)C3CCN(c4cccc(C(F)(F)F)c4)CC3)c2F)[nH]c(=O)c1F` [Example 97, N-[2-fluoro-3-(5-fluoro-4-methyl-6-oxo-1,6-dihydropyrimidin-2-yl)-4-(trifluoromethyl)benzyl]-1-[3-(trifluoromethyl)phenyl]piperidine-4-carboxamide] is lower in IC50: 13 nM for the first, less than 1 nM for the second.

First: O=c1cc(C(F)(F)F)nc(-c2c(C(F)(F)F)ccc(CNC(=O)[C@H]3CC[C@H](OCc4ccccc4Cl)CC3)c2F)[nH]1 [Example 99, trans-4-[(2-chlorobenzyl)oxy]-N-{2-fluoro-3-[6-oxo-4-(trifluoromethyl)-1,6-dihydropyrimidin-2-yl]-4-(trifluoromethyl)benzyl}cyclohexane-1-carboxamide]
Second: Cc1cc(=O)[nH]c(-c2c(C(F)(F)F)ccc(CNC(=O)[C@H]3CC[C@H](OCc4ccccc4Cl)CC3)c2F)n1 [Example 108, trans-4-[(2-chlorobenzyl)oxy]-N-[2-fluoro-3-(4-methyl-6-oxo-1,6-dihydropyrimidin-2-yl)-4-(trifluoromethyl)benzyl]cyclohexane-1-carboxamide]
The IC50 of the first is lower: less than 1 nM for the first, 38 nM for the second. The first is the more potent here.

`O=c1cc(C(F)(F)F)nc(-c2c(C(F)(F)F)ccc(CNC(=O)[C@H]3CC[C@H](OCc4cccc(Cl)c4)CC3)c2F)[nH]1` [Example 100, trans-4-[(3-chlorobenzyl)oxy]-N-{2-fluoro-3-[6-oxo-4-(trifluoromethyl)-1,6-dihydropyrimidin-2-yl]-4-(trifluoromethyl)benzyl}cyclohexane-1-carboxamide] and `O=c1cc(C(F)(F)F)nc(-c2c(C(F)(F)F)ccc(CNC(=O)[C@H]3CC[C@H](OCc4ccc(Cl)cc4)CC3)c2F)[nH]1` [Example 101, trans-4-[(4-chlorobenzyl)oxy]-N-{2-fluoro-3-[6-oxo-4-(trifluoromethyl)-1,6-dihydropyrimidin-2-yl]-4-(trifluoromethyl)benzyl}cyclohexane-1-carboxamide] cannot be ordered by IC50: less than 1 nM for the first, less than 1 nM for the second.

Going from `Cc1nc(-c2c(C(F)(F)F)ccc(CNC(=O)[C@H]3CC[C@H](OCc4ccccc4Cl)CC3)c2F)[nH]c(=O)c1F` [Example 102, trans-4-[(2-chlorobenzyl)oxy]-N-[2-fluoro-3-(5-fluoro-4-methyl-6-oxo-1,6-dihydropyrimidin-2-yl)-4-(trifluoromethyl)benzyl]cyclohexane-1-carboxamide] to `Cc1nc(-c2c(C(F)(F)F)ccc(CNC(=O)[C@H]3CC[C@H](OCc4ccc(Cl)cc4)CC3)c2F)[nH]c(=O)c1F` [Example 104, trans-4-[(4-chlorobenzyl)oxy]-N-[2-fluoro-3-(5-fluoro-4-methyl-6-oxo-1,6-dihydropyrimidin-2-yl)-4-(trifluoromethyl)benzyl]cyclohexane-1-carboxamide], the IC50 rises from less than 1 nM to 1.2 nM. The first is the more potent here.

First: O=c1cc(C(F)F)nc(-c2c(C(F)(F)F)ccc(CNC(=O)[C@H]3CC[C@H](OCc4ccccc4Cl)CC3)c2F)[nH]1 [Example 103, trans-4-[(2-chlorobenzyl)oxy]-N-{3-[4-(difluoromethyl)-6-oxo-1,6-dihydropyrimidin-2-yl]-2-fluoro-4-(trifluoromethyl)benzyl}cyclohexane-1-carboxamide]
Second: O=c1cc(C(F)F)nc(-c2c(C(F)(F)F)ccc(CNC(=O)[C@H]3CC[C@H](OCc4ccc(Cl)cc4)CC3)c2F)[nH]1 [Example 116, trans-4-[(4-chlorobenzyl)oxy]-N-{3-[4-(difluoromethyl)-6-oxo-1,6-dihydropyrimidin-2-yl]-2-fluoro-4-(trifluoromethyl)benzyl}cyclohexane-1-carboxamide]
The IC50 of the first is lower: less than 1 nM for the first, 10 nM for the second.

`Cc1cc(=O)[nH]c(-c2c(C(F)(F)F)ccc(CNC(=O)[C@H]3CC[C@H](OCc4ccc(Cl)cc4)CC3)c2F)n1` [Example 105, trans-4-[(4-chlorobenzyl)oxy]-N-[2-fluoro-3-(4-methyl-6-oxo-1,6-dihydropyrimidin-2-yl)-4-(trifluoromethyl)benzyl]cyclohexane-1-carboxamide] and `Cc1cc(=O)[nH]c(-c2c(C(F)(F)F)ccc(CNC(=O)[C@H]3CC[C@H](OCc4cccc(Cl)c4)CC3)c2F)n1` [Example 111, trans-4-[(3-chlorobenzyl)oxy]-N-[2-fluoro-3-(4-methyl-6-oxo-1,6-dihydropyrimidin-2-yl)-4-(trifluoromethyl)benzyl]cyclohexane-1-carboxamide] are within 1.5-fold of each other in IC50: 23 nM for the first, 19 nM for the second.

Compared with `Cc1cc(=O)[nH]c(-c2c(C(F)(F)F)ccc(CNC(=O)[C@H]3CC[C@H](OCc4ccc(F)c(F)c4)CC3)c2F)n1` [Example 107, trans-4-[(3,4-difluorobenzyl)oxy]-N-[2-fluoro-3-(4-methyl-6-oxo-1,6-dihydropyrimidin-2-yl)-4-(trifluoromethyl)benzyl]cyclohexane-1-carboxamide], `O=c1cc(C(F)(F)F)nc(-c2c(C(F)(F)F)ccc(CNC(=O)[C@H]3CC[C@H](OCc4ccc(F)c(F)c4)CC3)c2F)[nH]1` [Example 115, trans-4-[(3,4-difluorobenzyl)oxy]-N-{2-fluoro-3-[6-oxo-4-(trifluoromethyl)-1,6-dihydropyrimidin-2-yl]-4-(trifluoromethyl)benzyl}cyclohexane-1-carboxamide] is 1.6-fold higher in IC50: 13 nM for the first, 21 nM for the second.

Going from `Cc1cc(=O)[nH]c(-c2c(C(F)(F)F)ccc(CNC(=O)[C@H]3CC[C@H](OCc4cccc(C(F)(F)F)c4)CC3)c2F)n1` [Example 109, trans-N-[2-fluoro-3-(4-methyl-6-oxo-1,6-dihydropyrimidin-2-yl)-4-(trifluoromethyl)benzyl]-4-{[3-(trifluoromethyl)benzyl]oxy}cyclohexane-1-carboxamide] to `O=c1cc(C(F)(F)F)nc(-c2c(C(F)(F)F)ccc(CNC(=O)[C@H]3CC[C@H](OCc4cccc(C(F)(F)F)c4)CC3)c2F)[nH]1` [Example 112, trans-N-{2-fluoro-3-[6-oxo-4-(trifluoromethyl)-1,6-dihydropyrimidin-2-yl]-4-(trifluoromethyl)benzyl}-4-{[3-(trifluoromethyl)benzyl]oxy}cyclohexane-1-carboxamide], the IC50 rises from 10 nM to 29 nM (2.9-fold).

First: O=c1cc(C(F)(F)F)nc(-c2c(C(F)(F)F)ccc(CNC(=O)[C@H]3CC[C@H](OCc4ccc(F)cc4F)CC3)c2F)[nH]1 [Example 114, trans-4-[(2,4-difluorobenzyl)oxy]-N-{2-fluoro-3-[6-oxo-4-(trifluoromethyl)-1,6-dihydropyrimidin-2-yl]-4-(trifluoromethyl)benzyl}cyclohexane-1-carboxamide]
Second: O=c1cc(C(F)(F)F)nc(-c2c(C(F)(F)F)ccc(CNC(=O)[C@H]3CC[C@H](OCc4cc(F)cc(F)c4)CC3)c2F)[nH]1 [Example 117, trans-4-[(3,5-difluorobenzyl)oxy]-N-{2-fluoro-3-[6-oxo-4-(trifluoromethyl)-1,6-dihydropyrimidin-2-yl]-4-(trifluoromethyl)benzyl}cyclohexane-1-carboxamide]
The IC50 of the first is higher: 5.2 nM for the first, less than 1 nM for the second.
